Data as given in US10130830B2, “Preservative systems comprising cationic surfactants” (Laboratorios Miret, S.A., priority 2005, dated 2018).

How the values were obtained:
aerobic total count [1] = assay: Preservative action in soaked chickpeas, aerobic total count; assay type: cell-based; conditions: Example 13, soaked chickpeas, LAE 0.2 g/kg in soaking water, mean of triplicate
Method: (4) Determination of Preservative Action in Soaked Chick-peas.
Chickpeas are the principal ingredients in a lot of ready-to-eat meals. Before cooking them, chickpeas have to be soaked in water at room temperature for 24 hours. During this period, fermentation processes may occur and therefore, chickpeas would not be suitable for eating. The soaking process cannot be made at refrigeration temperatures, because the structure of the chickpeas could be damaged.
• 1. Chickpeas were soaked in water for 24 hours at 30° C. and 50% HR (in treated samples preservative was added at this point); and • 2. after 24 hours the chickpeas were strained. Analysis • Samples were analysed (aerobic total count and concentration of the cationic surfactant) by triplicate for 24 hours. • Aerobic total count was analysed by stomaching 25 g of chickpeas in 225 g of buffered peptone water. Dilutions were made in buffered peptone water. Tryptone Soya Agar was harvested with each dilution and incubated at 35° C. for 48 hours. • Average values in log cfu/g of three samples per treatment and day of analysis were calculated. • LAE was analysed by HPLC using an internally validated method.

Aerobes = assay: Preservative action in cosmetic products (Antimicrobial Effectiveness Testing USP 24th Edition), aerobes; assay type: cell-based
Text: (§1) (1) Determination of Preservative Action in Cosmetic Products. […] This assay consists of the contamination of the protecting formulations with an inoculum mixture of 10^8 cfu/ml concentration, for each of the micro-organisms, and the determination of the number of viable cells in time. This inoculum mixture is composed of the following microorganisms: [table] The cosmetic composition to be analysed is divided into sterile containers with 50 g of product for each flask. Each container is inoculated with 0.5 ml of inoculum (10^8 cfu/ml). The target concentration is 10^6 cfu/ml, approximately. All the containers are kept at a temperature between 20-25° C. and are protected from light. The level of the microbial contamination is checked at 0 hours, 7 days, 14 days and 28 days. The number of colonies is evaluated by dilution in buffer peptone with the appropriate neutraliser agent of the preservative. The culture media used for counting the microorganisms are: […] (2) Determination of Preservative Action in Chicken Breast. Process of Preparation • 1. Fresh chicken breast was diced to pieces • 2. Brine (8.70% sodium chloride and 4.35% tripolyphosphate in water) was added to the fresh chicken in an amount of 11.5 g brine per 88.5 g meat in the control preparation and 11.5 g brine and 88.4 g meat in the preparations treated with preservative. • 3. Brine and meat were mixed during 15 minutes, in the preparations treated with preservative the preservative was added after 14 minutes in an amount of 0.2 g/kg. • 4. Vacuum refrigerate tumbling was made during 30 minutes. • 5. Samples were vacuum-packed in sterile bags and they were cooked at 85° C. for 30 minutes. • 6. The cooked chicken was refrigerated at 4° C. • 7. The cooked chicken was diced in irregular shapes. • 8. Then, the nuggets were stored at 10° C. in sterile vacuum-packed bags. Analysis

aerobic total count [2] = assay: Preservative action in bratwurst sausage, aerobic total count; assay type: cell-based; conditions: Example 11, bratwurst sausage, LAE 0.2 g/kg
Method: (3) Determination of Preservative Action in Bratwurst Sausage.
The ingredients for all samples were : minced pork back, underbelly, spices, salt and additives (milk protein, diphosphate, antioxidant (E-300) and flavour enhance (E-621)).
1. On the cutter the minced pork back meat was ground and the ingredients were added in this order: the additives (except the preservative system), the underbelly, the spices and the preservative system (such as the cationic surfactant alone or in combination with other products). Ice was also added for controlling the temperature (maximum 5° C.) of the meat. The mixing time was 12 minutes.
2. The mass was vacuum mixed (92%) for 1 minute.
3. The mixture was stuffed into natural casings. The casings were previously soaked in a salted water solution for 30 minutes.
4. The bratwurst sausages were put in a cooking trolley. Cooking took place in a oven at 80° C. for 1 hour.
5. After cooking, the bratwurst sausages were sprayed with cool water for 5 minutes and put in a cold-storage room (0-5° C., 24 hours).
6. The next day, bratwurst sausages were packed (each packed contained five sausages) and pasteurised at 80° C. for 30 minutes and then. After, they were soaked in cool water for 30 minutes.
7. Finally, the bratwurst sausages were labelled and stored at 5° C. for 90 days.
Samples were analysed (aerobic total count) for up to 90 days. Aerobic total count was analysed by stomaching 25 g of sausage in 225 g of buffered peptone water. Dilutions were made in buffered peptone water. Tryptone Soya Agar was harvested with each dilution and incubated at 35° C. for 48 hours.
Average values in log cfu/g of three samples per treatment and day of analysis were calculated.

[3] = system: inoculated microorganisms; assay: Preservative action in cosmetic products, overall outcome against the inoculum mixture; assay type: cell-based; conditions: Example 17, oil in water emulsion with an ionic emulsifier, 0.20 g of LAE/kg
Text: as §1, with “Brine and meat were mixed during 15 minutes, in the preparations treated with preservative the preservative was added after 14 minutes in an amount of 0.2 g/kg. • 4. Vacuum refrigerate tumbling was made during 30 minutes. • 5. Samples were vacuum-packed in sterile bags and they were cooked at 85° C. for 30 minutes. • 6. The cooked chicken was refrigerated at 4° C. • 7. The cooked chicken was diced in irregular shapes. • 8. Then, the nuggets were stored at 10° C. in sterile vacuum-packed bags. Analysis” left out

Moulds = assay: Preservative action in cosmetic products (Antimicrobial Effectiveness Testing USP 24th Edition), moulds; assay type: cell-based, Aspergillus niger
Text: as §1

Yeast = assay: Preservative action in cosmetic products (Antimicrobial Effectiveness Testing USP 24th Edition), yeast; assay type: cell-based, Candida albicans
Text: as §1

[4] = Example 10, oil in water emulsion with non-ionic surfactant, 0.2 g/kg, 0 days
[5] = Example 10, oil in water emulsion with non-ionic surfactant, 0.2 g/kg, 7 days
[6] = Example 10, oil in water emulsion with non-ionic surfactant, 0.2 g/kg, 14 days
[7] = Example 12, bath gel, LAE 0.2 g/kg, 0 days
[8] = Example 12, bath gel, LAE 0.2 g/kg, 7 days
[9] = Example 12, bath gel, LAE 0.2 g/kg, 14 days
[10] = Example 15, bath gel, LAE 0.2 g/kg, 0 days
[11] = Example 15, bath gel, LAE 0.2 g/kg, 7 days
[12] = Example 15, bath gel, LAE 0.2 g/kg, 14 days
[13] = Example 17, oil in water emulsion with an ionic emulsifier, 0.20 g of LAE/kg, 0 days
[14] = Example 17, oil in water emulsion with an ionic emulsifier, 0.20 g of LAE/kg, 7 days
[15] = Example 17, oil in water emulsion with an ionic emulsifier, 0.20 g of LAE/kg, 14 days
[16] = Example 19, bath gel, 0.2 g of LAE/kg, 0 days
[17] = Example 19, bath gel, 0.2 g of LAE/kg, 7 days
[18] = Example 19, bath gel, 0.2 g of LAE/kg, 14 days

`CCCCCCCCCCCC(=O)N[C@@H](CCCN=C(N)N)C(=O)OCC.Cl` [LAE, ethyl ester of the lauramide of the arginine monohydrochloride] was tested, and the “aerobic total count, mean” value (aerobic total count [1]; 0 hours) was 2.0 log cfu/g, the “aerobic total count, mean” value (aerobic total count [1]; 4 hours) was 2.0 log cfu/g and the “aerobic total count, mean” value (aerobic total count [1]; 8 hours) was 2.5 log cfu/g. The “aerobic total count, mean” value (aerobic total count [1]; 16 hours) was 3.8 log cfu/g, the Aerobes count (Aerobes; [4]) was 6.2 log cfu/g and the Aerobes count (Aerobes; [5]) was 3.5 log cfu/g. For the same molecule, the Aerobes count (Aerobes; [6]) was 3.0 log cfu/g, the Aerobes count (Aerobes; [7]) was 6.2 log cfu/g and the Aerobes count (Aerobes; [8]) was 4.2 log cfu/g. For the same molecule, the Aerobes count (Aerobes; [9]) was 3.0 log cfu/g, the Aerobes count (Aerobes; [10]) was 6.1 log cfu/g and the Aerobes count (Aerobes; [11]) was 3.0 log cfu/g. It also gave an Aerobes count (Aerobes; [12]) of 2.6 log cfu/g, an Aerobes count (Aerobes; [13]) of 6.1 log cfu/g and an Aerobes count (Aerobes; [14]) of 4.0 log cfu/g. For the same molecule, the Aerobes count (Aerobes; [15]) was 2.9 log cfu/g, the Aerobes count (Aerobes; [16]) was 6.0 log cfu/g and the Aerobes count (Aerobes; [17]) was 3.3 log cfu/g. For the same molecule, the Aerobes count (Aerobes; [18]) was 2.9 log cfu/g, the “aerobic total count, mean” value (aerobic total count [2]; day 0, mean of three samples) was 2.0 log cfu/g and the “aerobic total count, mean” value (aerobic total count [2]; day 15, mean of three samples) was 2.0 log cfu/g. The “aerobic total count, mean” value (aerobic total count [2]; day 30, mean of three samples) was 2.4 log cfu/g, the “aerobic total count, mean” value (aerobic total count [2]; day 45, mean of three samples) was 2.8 log cfu/g and the “aerobic total count, mean” value (aerobic total count [2]; day 60, mean of three samples) was 3.4 log cfu/g. The “aerobic total count, mean” value (aerobic total count [2]; day 90, mean of three samples) was 4.2 log cfu/g, the preservation outcome [3] was “effectively preserved” and the Moulds count (Moulds; [4]) was 4.3 log cfu/g. For the same molecule, the Moulds count (Moulds; [5]) was less than 2.0 log cfu/g, the Moulds count (Moulds; [6]) was less than 2.0 log cfu/g and the Moulds count (Moulds; [7]) was 4.5 log cfu/g. It also gave a Moulds count (Moulds; [8]) of 2.3 log cfu/g, a Moulds count (Moulds; [9]) of less than 2.0 log cfu/g and a Moulds count (Moulds; [10]) of 4.1 log cfu/g. It also gave a Moulds count (Moulds; [11]) of less than 2.0 log cfu/g, a Moulds count (Moulds; [12]) of less than 2.0 log cfu/g and a Moulds count (Moulds; [13]) of 4.1 log cfu/g. The Moulds count (Moulds; [14]) was 2.9 log cfu/g, the Moulds count (Moulds; [15]) was less than 2.0 log cfu/g and the Moulds count (Moulds; [16]) was 4.1 log cfu/g. It also gave a Moulds count (Moulds; [17]) of 2.0 log cfu/g, a Moulds count (Moulds; [18]) of less than 2.0 log cfu/g and a Yeast count (Yeast; [4]) of 5.6 log cfu/g. The Yeast count (Yeast; [5]) was 3.4 log cfu/g, the Yeast count (Yeast; [6]) was 2.6 log cfu/g and the Yeast count (Yeast; [7]) was 4.3 log cfu/g. It also gave a Yeast count (Yeast; [8]) of 2.8 log cfu/g, a Yeast count (Yeast; [9]) of less than 2.0 log cfu/g and a Yeast count (Yeast; [10]) of 4.3 log cfu/g. For the same molecule, the Yeast count (Yeast; [11]) was 3.3 log cfu/g, the Yeast count (Yeast; [12]) was 2.6 log cfu/g and the Yeast count (Yeast; [13]) was 5.3 log cfu/g. For the same molecule, the Yeast count (Yeast; [14]) was 3.8 log cfu/g, the Yeast count (Yeast; [15]) was 2.5 log cfu/g and the Yeast count (Yeast; [16]) was 4.5 log cfu/g. For the same molecule, the Yeast count (Yeast; [17]) was 3.5 log cfu/g and the Yeast count (Yeast; [18]) was 2.3 log cfu/g.
